In PubChem BioAssay (NCI):
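These data come from cells grown in 96-well plates and exposed to compound for 48 hours at five concentrations. TGI is the concentration that stops growth completely.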

Experiments:
Experiment in all cases: NCI tumour cell line growth inhibition, 48 h
SN12C renal = system: SN12C renal
XF 498 CNS = system: XF 498 CNS
TK-10 renal = system: TK-10 renal
KM12 colon = system: KM12 colon
SNB-19 CNS = system: SNB-19 CNS
COLO 205 colon = system: COLO 205 colon
OVCAR-8 ovarian = system: OVCAR-8 ovarian
A498 renal = system: A498 renal
EKVX NSCLC = system: EKVX NSCLC
U251 CNS = system: U251 CNS
DMS 114 small cell lung = system: DMS 114 small cell lung
RXF 393 renal = system: RXF 393 renal
RPMI-8226 leukemia = system: RPMI-8226 leukemia
KM20L2 colon = system: KM20L2 colon
NCI-H23 lung = system: NCI-H23 lung
SF-268 CNS = system: SF-268 CNS
HOP-92 NSCLC = system: HOP-92 NSCLC
NCI-H460 lung = system: NCI-H460 lung
SK-MEL-28 melanoma = system: SK-MEL-28 melanoma
HCT-15 colon = system: HCT-15 colon
M19-MEL melanoma = system: M19-MEL melanoma
OVCAR-4 ovarian = system: OVCAR-4 ovarian
786-0 renal = system: 786-0 renal
UO-31 renal = system: UO-31 renal
A549 NSCLC = system: A549 NSCLC
NCI-H522 lung = system: NCI-H522 lung
SK-MEL-2 melanoma = system: SK-MEL-2 melanoma
HOP-18 NSCLC = system: HOP-18 NSCLC
SK-MEL-5 melanoma = system: SK-MEL-5 melanoma
K-562 leukemia = system: K-562 leukemia
HCC-2998 colon = system: HCC-2998 colon
HL-60(TB) leukemia = system: HL-60(TB) leukemia
DLD-1 colon = system: DLD-1 colon
UACC-62 melanoma = system: UACC-62 melanoma
OVCAR-5 ovarian = system: OVCAR-5 ovarian
CAKI-1 renal = system: CAKI-1 renal
RXF-631 renal = system: RXF-631 renal
ACHN renal = system: ACHN renal
IGROV1 ovarian = system: IGROV1 ovarian
LOX IMVI melanoma = system: LOX IMVI melanoma
SW-620 colon = system: SW-620 colon
SF-295 CNS = system: SF-295 CNS
HOP-62 NSCLC = system: HOP-62 NSCLC
SNB-75 CNS = system: SNB-75 CNS
CCRF-CEM leukemia = system: CCRF-CEM leukemia
M14 melanoma = system: M14 melanoma
UACC-257 melanoma = system: UACC-257 melanoma
NCI-H226 lung = system: NCI-H226 lung
SNB-78 CNS = system: SNB-78 CNS
SF-539 CNS = system: SF-539 CNS
MALME-3M melanoma = system: MALME-3M melanoma
LXFL 529 NSCLC = system: LXFL 529 NSCLC
SK-OV-3 ovarian = system: SK-OV-3 ovarian
SR leukemia = system: SR leukemia
MOLT-4 leukemia = system: MOLT-4 leukemia
HCT-116 colon = system: HCT-116 colon
OVCAR-3 ovarian = system: OVCAR-3 ovarian
HT29 colon = system: HT29 colon
DMS 273 small cell lung = system: DMS 273 small cell lung

SMILES: FC(F)(F)c1nc2c(ccc3[nH]c4c(-c5ccccc5)nccc4c32)[nH]1
- TGI (SN12C renal): > 100 µM
- TGI (XF 498 CNS): > 100 µM
- TGI (TK-10 renal): > 100 µM
- TGI (KM12 colon): > 100 µM
- TGI (SNB-19 CNS): > 100 µM
- TGI (COLO 205 colon): > 100 µM
- TGI (OVCAR-8 ovarian): > 100 µM
- TGI (A498 renal): > 100 µM
- TGI (EKVX NSCLC): > 100 µM
- TGI (U251 CNS): > 100 µM
- TGI (DMS 114 small cell lung): > 61 µM
- TGI (RXF 393 renal): > 100 µM
- TGI (RPMI-8226 leukemia): > 64.7 µM
- TGI (KM20L2 colon): > 100 µM
- TGI (NCI-H23 lung): > 100 µM
- TGI (SF-268 CNS): > 100 µM
- TGI (HOP-92 NSCLC): > 100 µM
- TGI (NCI-H460 lung): > 100 µM
- TGI (SK-MEL-28 melanoma): > 100 µM
- TGI (HCT-15 colon): > 100 µM
- TGI (M19-MEL melanoma): > 100 µM
- TGI (OVCAR-4 ovarian): > 100 µM
- TGI (786-0 renal): > 100 µM
- TGI (UO-31 renal): > 100 µM
- TGI (A549 NSCLC): > 100 µM
- TGI (NCI-H522 lung): > 100 µM
- TGI (SK-MEL-2 melanoma): > 100 µM
- TGI (HOP-18 NSCLC): > 100 µM
- TGI (SK-MEL-5 melanoma): > 100 µM
- TGI (K-562 leukemia): > 100 µM
- TGI (HCC-2998 colon): > 100 µM
- TGI (HL-60(TB) leukemia): > 100 µM
- TGI (DLD-1 colon): > 100 µM
- TGI (UACC-62 melanoma): > 100 µM
- TGI (OVCAR-5 ovarian): > 100 µM
- TGI (CAKI-1 renal): > 100 µM
- TGI (RXF-631 renal): > 100 µM
- TGI (ACHN renal): > 100 µM
- TGI (IGROV1 ovarian): > 100 µM
- TGI (LOX IMVI melanoma): > 75.9 µM
- TGI (SW-620 colon): > 100 µM
- TGI (SF-295 CNS): > 100 µM
- TGI (HOP-62 NSCLC): > 100 µM
- TGI (SNB-75 CNS): > 100 µM
- TGI (CCRF-CEM leukemia): > 69.1 µM
- TGI (M14 melanoma): > 100 µM
- TGI (UACC-257 melanoma): > 100 µM
- TGI (NCI-H226 lung): > 100 µM
- TGI (SNB-78 CNS): > 100 µM
- TGI (SF-539 CNS): > 100 µM
- TGI (MALME-3M melanoma): > 100 µM
- TGI (LXFL 529 NSCLC): > 100 µM
- TGI (SK-OV-3 ovarian): > 100 µM
- TGI (SR leukemia): 40.7 µM
- TGI (MOLT-4 leukemia): > 100 µM
- TGI (HCT-116 colon): > 100 µM
- TGI (OVCAR-3 ovarian): > 100 µM
- TGI (HT29 colon): > 100 µM

SMILES: NC(=S)N/N=C1/C(=O)N(c2ccccc2)C(=O)C1C(=O)Nc1ccccc1 (configuration not stated)
- TGI (SN12C renal): > 100 µM
- TGI (XF 498 CNS): > 100 µM
- TGI (TK-10 renal): > 100 µM
- TGI (KM12 colon): > 100 µM
- TGI (SNB-19 CNS): > 100 µM
- TGI (COLO 205 colon): > 100 µM
- TGI (OVCAR-8 ovarian): > 100 µM
- TGI (A498 renal): > 100 µM
- TGI (EKVX NSCLC): > 100 µM
- TGI (U251 CNS): > 100 µM
- TGI (DMS 114 small cell lung): > 100 µM
- TGI (RXF 393 renal): > 100 µM
- TGI (KM20L2 colon): > 100 µM
- TGI (NCI-H23 lung): > 100 µM
- TGI (SF-268 CNS): > 100 µM
- TGI (HOP-92 NSCLC): > 100 µM
- TGI (NCI-H460 lung): > 100 µM
- TGI (SK-MEL-28 melanoma): > 100 µM
- TGI (HCT-15 colon): > 100 µM
- TGI (M19-MEL melanoma): > 100 µM
- TGI (OVCAR-4 ovarian): > 100 µM
- TGI (786-0 renal): > 100 µM
- TGI (UO-31 renal): > 100 µM
- TGI (A549 NSCLC): > 100 µM
- TGI (NCI-H522 lung): > 100 µM
- TGI (SK-MEL-2 melanoma): > 100 µM
- TGI (HOP-18 NSCLC): > 100 µM
- TGI (SK-MEL-5 melanoma): > 100 µM
- TGI (HCC-2998 colon): > 100 µM
- TGI (HL-60(TB) leukemia): > 100 µM
- TGI (UACC-62 melanoma): > 100 µM
- TGI (OVCAR-5 ovarian): > 100 µM
- TGI (CAKI-1 renal): > 100 µM
- TGI (RXF-631 renal): > 100 µM
- TGI (ACHN renal): > 100 µM
- TGI (IGROV1 ovarian): > 100 µM
- TGI (SW-620 colon): > 100 µM
- TGI (SF-295 CNS): > 100 µM
- TGI (HOP-62 NSCLC): > 100 µM
- TGI (SNB-75 CNS): > 100 µM
- TGI (M14 melanoma): > 100 µM
- TGI (UACC-257 melanoma): > 100 µM
- TGI (NCI-H226 lung): > 100 µM
- TGI (SNB-78 CNS): > 100 µM
- TGI (SF-539 CNS): > 100 µM
- TGI (MALME-3M melanoma): > 100 µM
- TGI (DMS 273 small cell lung): > 100 µM
- TGI (LXFL 529 NSCLC): > 100 µM
- TGI (SK-OV-3 ovarian): > 100 µM
- TGI (SR leukemia): > 100 µM
- TGI (MOLT-4 leukemia): > 100 µM
- TGI (HCT-116 colon): > 100 µM
- TGI (OVCAR-3 ovarian): > 100 µM
- TGI (HT29 colon): > 100 µM
